Usually pIC50 stands for the IC50 on a negative log10 scale, so that one unit is a factor of ten.

Molecules are shown by their SMILES. pIC50: −log10 of the molar value.

Granzyme B (human lymphocytes), sequence (P10144 21-247): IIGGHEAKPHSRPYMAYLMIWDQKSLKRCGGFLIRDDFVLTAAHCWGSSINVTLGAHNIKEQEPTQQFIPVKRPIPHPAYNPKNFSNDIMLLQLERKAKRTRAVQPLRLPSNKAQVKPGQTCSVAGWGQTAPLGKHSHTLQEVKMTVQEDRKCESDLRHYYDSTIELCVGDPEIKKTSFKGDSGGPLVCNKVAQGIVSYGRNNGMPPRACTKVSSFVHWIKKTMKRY

The target in this test is Granzyme B (human lymphocytes) (Homo sapiens (Human), UniProt P10144). The test is described as follows: human Granzyme B biochemical assay. The note with it: Granzyme B (human lymphocytes) 5 nM, substrate Ac-IETD-AFC 200 μM, Cpd incubation with enzyme 30 mins, 22° C., read time 60 mins; read-out: IC50. The source says:
The compounds of Formula I-VIII described above can be tested using the human Granzyme B biochemical assay provided below.
Materials: • 1. Granzyme B (human lymphocytes) Enzyme: Enzo Lifesciences, Cat #ALX-200-602-0010 • 2. Substrate (Ac-IETD-AFC): Enzo Lifesciences, Cat #ALX-260-110-M010 • 3. Standard inhibitor (Compound 20-Isomer3): Synthesized internally in TCG • 4. Dimethyl sulfoxide (DMSO): Sigma-Aldrich, Cat #41639 • 5. HEPES: Gibco, Cat #15630-080 • 6. Calcium chloride: Sigma-Aldrich, Cat #C-5080 • 7. Distilled water: Gibco, Cat #15230-162 • 8. Bovine serum albumin (BSA): Sigma-Aldrich, Cat #A3059 • 9. Black, clear bottom PDL plate (384 wells): Greiner bio-one, Cat #781946 • 10. Polypropylene plate (384 wells): Corning, Cat #3657 Assay Buffer Composition:
Compound Preparation: • 1. DMSO is added to the respective compound vial to make 10 mM Compound stock solution, which is stored at −20° C. • 2. 10 mM Compound stock solution is thawed and 1 mM DMSO stock solution is prepared by adding 45 μl of DMSO to 5 μl of 10 mM compound stock solution. • 3. 1 mM DMSO stock solution is serially diluted (3.16 fold) by adding 10 μl of 1 mM DMSO stock to 21.6 μl of DMSO and mixed well. 10 μl of the resulting solution is then added to 21.6 μl of DMSO and mixed well. This process is continued to create 11 dilution points for the assay standard inhibitor and 8 dilution points for test compounds in 384 well polypropylene plate. • 4. 2 μl of each dilution are dispensed in assay ready plate. • 5. Each well is then diluted 25 fold by adding 48 μl of assay buffer to 2 μl of compound in assay ready plate to make Compound working stock. Enzyme Preparation: • 1. Supplied Granzyme B (human lymphocytes) enzyme is reconstituted to 1 mg/ml (about 31.25 μM) and 1 μl aliquots are kept in −80° C. • 2. 1 μl aliquot is diluted to 625 nM by adding 49 μl of assay buffer containing 0.1% BSA and gently mixed. • 3. 10 nM enzyme working stock is prepared by adding assay buffer containing 0.1% BSA. Substrate Preparation: • 1. Supplied substrate (Ac-IETD-AFC) is reconstituted by adding DMSO to make 10 mM stock, aliquoted and stored in −80° C. • 2. 4 mM substrate mid stock is prepared by adding DMSO. • 3. Substrate working stock i.e. 800 μM is prepared by adding assay buffer. Assay Protocol: • 1. 10 μl of serially diluted Compound working stock (start dose 40 μM) is added from assay ready plate to assay plate according to the plate map. • 2. Positive control (40 μM of standard inhibitor) and negative control (4% DMSO buffer) are added to the respective wells. • 3. 20 μl of Enzyme working stock is added to assay plate and gently mixed. • 4. The plate is incubated at 22° C. for 30 mins and spun at 130 g for 1 minute. • 5. After incubation, 10 μl of Substrate working stock is added to respective wells and mixed (Assay plate is maintained in dark after substrate addition). • 6. The plate is incubated at 22° C. for 60 mins and spun at 130 g for 1 minute. • 7. Fluorescence read (RFU) (Ex: 400 nm/Em: 505 nm) is taken after 60 mins in EnVision Multimode plate reader. Final Assay Concentration:
Data Analysis: • 1. The RFU read is analyzed to calculate percent inhibition by normalizing with positive and negative controls taken as 100% and 0% effect respectively in Microsoft excel. • 2. Graph is generated by putting the analyzed data in GraphPad prism 5.0 software to get IC50 value for each compound.
Take `O=C(Cc1csc2ccccc12)N[C@@H](Cc1ccc(O)cc1)C(=O)N[C@H]1CCc2cccc3c2N(C1=O)[C@H](C(=O)NCc1c[nH]nn1)C3` [Compound C010, (2S,5S)-5-[(S)-2-(2-Benzo[b]thiophen-3-yl-acetylamino)-3-(4-hydroxy-phenyl)-propionylamino]-4-oxo-1,2,4,5,6,7-hexahydro-azepino[3,2,1-hi]indole-2-carboxylic acid (1H-[1,2,3]triazol-4-ylmethyl)-amide]: the pIC50 is less than 5.30.

As to `O=C(Cc1csc2ccccc12)N[C@@H](Cc1ccc(F)cc1)C(=O)N[C@H]1CCc2cccc3c2N(C1=O)[C@H](C(=O)NCc1c[nH]nn1)C3` [Compound C011, (2S,5S)-5-[(S)-2-(2-Benzo[b]thiophen-3-yl-acetylamino)-3-(4fluoro-phenyl)-propionylamino]-4-oxo-1,2,4,5,6,7-hexahydro-azepino[,3,2,1-hi]indole-2-carboxylic acid (1H-[1,2,3]triazol-4-ylmethyl)-amide], the pIC50 is less than 5.30. For `C[C@H](NC(=O)Cc1ccccc1)C(=O)N[C@H]1CCc2cccc3c2N(C1=O)[C@H](C(=O)NCc1c[nH]nn1)C3` [Compound C013, (2S,5S)-4-Oxo-5-((S)-2-phenylacetylamino-propionylamino)-1,2,4,5,6,7-hexahydro-azepino[3,2,1-hi]indole-2-carboxylic acid (1H-[1,2,3]triazol-4-ylmethyl)-amide] the value was less than 5.30; for `CC(C)[C@H](NC(=O)Cc1ccccc1)C(=O)N[C@H]1CCc2cccc3c2N(C1=O)[C@H](C(=O)NCc1c[nH]nn1)C3` [Compound C014, (2S,5S)-5-((S)-3-Methyl-2-phenylacetylamino-butyrylamino)-4-oxo-1,2,4,5,6,7-hexahydro-azepino[3,2,1-hi]indole-2-carboxylic acid (1H-[1,2,3]triazol-4-ylmethyl)-amide], 6.52 to 9.00; for `O=C(Cc1ccccc1)N[C@@H](Cc1ccccc1)C(=O)N[C@H]1CCc2cccc3c2N(C1=O)[C@H](C(=O)NCc1c[nH]nn1)C3` [Compound C015, (2S,5S)-4-Oxo-5-((S)-3-phenyl-2-phenylacetylamino-propionylamino)-1,2,4,5,6,7-hexahydro-azepino[3,2,1-hi]indole-2-carboxylic acid (1H-[1,2,3]triazol-4-ylmethyl)-amide], 5.30 to 6.00. `CC(C)C[C@H](NC(=O)Cc1ccccc1)C(=O)N[C@H]1CCc2cccc3c2N(C1=O)[C@H](C(=O)NCc1c[nH]nn1)C3` [Compound C016, (2S,5S)-5-((S)-4-Methyl-2-phenylacetylamino-pentanoylamino)-4-oxo-1,2,4,5,6,7-hexahydro-azepino[3,2,1-hi]indole-2-carboxylic acid (1H-[1,2,3]triazol-4-ylmethyl)-amide]: the pIC50 was 5.30 to 6.00. In the case of `CC[C@H](C)[C@H](NC(=O)Cc1ccccc1)C(=O)N[C@H]1CCc2cccc3c2N(C1=O)[C@H](C(=O)NCc1c[nH]nn1)C3` [Compound C017, (2S,5S)-5-((2S,3S)-3-Methyl-2-phenylacetylamino-pentanoylamino)-4-oxo-1,2,4,5,6,7-hexahydro-azepino[3,2,1-hi]indole-2-carboxylic acid(1H-[1,2,3]triazol-4-ylmethyl)-amide] it was 6.52 to 9.00.

Take `O=C(Cc1ccccc1)N[C@@H](CO)C(=O)N[C@H]1CCc2cccc3c2N(C1=O)[C@H](C(=O)NCc1c[nH]nn1)C3` [Compound C018, (2S,5S)-5-((S)-3-Hydroxy-2-phenylacetylamino-propionylamino)-4-oxo-1,2,4,5,6,7-hexahydro-azepino[3,2,1-hi]indole-2-carboxylic acid (1H-[1,2,3]triazol-4-ylmethyl)-amide]: the negative-log IC50 (pIC50) was less than 5.30. `O=C(O)CC[C@H](NC(=O)Cc1ccccc1)C(=O)N[C@H]1CCc2cccc3c2N(C1=O)[C@H](C(=O)NCc1c[nH]nn1)C3` [Compound C019, (S)-4-{(2S,5S)-4-Oxo-2-[(1H-[1,2,3]triazol-4-ylmethyl)-carbamoyl]-1,2,4,5,6,7-hexahydro-azepino[3,2,1-hi]indol-5-ylcarbamoyl}-4-phenylacetylamino-butyric acid]: the pIC50 is less than 5.30.

The record behind these values is US11667645B2, “Granzyme B directed imaging and therapy” (CytoSite Biopharma Inc., priority 2018, dated 2023).
